Reference: patent US20080280989A1, “Hydroxybenzamide Derivatives, the Method For Preparing Thereof and the Cosmetic Composition Containing the Same” (priority 2005, published 2008)
Read-outs that look alike come from different tables or passages of the source.

Key:
[1] = Thermal stability according to isothermal discoloration test; format: physicochemical; parameters: key: 1: no discoloration; 2: discoloration into a light yellow color; 3: discoloration into a dark yellow color; 4: discoloration into a dark brown color; conditions: 1000 pm in dimethylformaldehyde:ethanol:water=5:3:2, 40° C., naked eyes
Protocol: The hydroxybenzamide compounds according to Examples 18 were determined for their thermal stability as compared to resveratrol.
The test was performed by dissolving each of the hydroxybenzamide compounds according to Examples 1˜8 into a test solvent (dimethylformaldehyde:ethanol:water=5:3:2) in a concentration of 1000 pm, and by allowing the test samples to be left in an isothermal chamber at 40° C. for a test period of 30, 60 and 90 days. Then, the test samples were observed by the naked eyes to determine discoloration degrees.
Discoloration of the samples was graded into Grade 1 Grade 4 as follows:
2: discoloration into a light yellow color
3: discoloration into a dark yellow color
4: discoloration into a dark brown color

procollagen type(I) = experiment: Stimulation of collagen biosynthesis (procollagen type(I) ELISA); format: cell-based; conditions: Fibroblasts, 10 μM in serum-free medium, 24 hours, non-treated group taken as 100; for activity at 10 µM: Fibroblast
Protocol: The hydroxybenzamide compounds according to Examples 18 were determined for their effects of stimulating collagen biosynthesis, and the results were compared to the effects obtained from resveratrol and tocopherol.
Fibroblasts were seeded into a 24-well microtiter plate in a cell count of 10^5 cells per well and cultured to a growth level of 90%. The cultured product was further cultured in a serum-free DMEM medium for 24 hours. Next, the cultured product was treated with the hydroxybenzamide compounds according to Examples 1˜8, resveratrol and tocopherol, dissolved in a serum-free medium at a concentration of 10 μM, and then was cultured in a CO2 incubator for 24 hours. After decanting the supernatant, procollagen was determined by using a procollagen type(I) ELISA kit. The results are shown in the following Table 2, wherein the biosynthesis activity is expressed based on the biosynthesis activity of non-treated group, taken as 100.

[2] = system: Human keratinocyte HaCaT cell lines; experiment: Anti-oxidative effect using HaCaT model (lipid peroxidation assay kit); format: cell-based; conditions: for activity at 100 µM: Homo sapiens, read-out: Lipid peroxidation (%)
Protocol: The hydroxybenzamide compounds prepared in Examples 1-8 were determined for their anti-oxidative effects.
Human keratinocyte HaCaT cell lines were pipetted into 60 mm dishes in a cell count of 1.0×10^6 cells per dish, and were cultured by using a DMEM (FBS 10%) medium containing penicillin/streptomycin added thereto under the conditions of 37° C./5% CO2 for 1 day. Then, the cultured product was treated with each of the hydroxybenzamide compounds according to Examples 1˜8 in a concentration of 10˜4 mol. Also, the same cultured product was treated with the same concentration of tocopherol and resveratrol for 24 hours. In addition to the above, the cultured product was treated with t-BHT (t-butyl hydroperoxide) and cultured under the conditions of 37° C./5% CO2 for 4 hours to obtain cells. The cells were subjected to lysis by repeating freezing/thawing cycles. The following Test procedure was based on the method described in the assay kit used in this example.
In this example, Calbiochem Lipid peroxidation assay kit (Cat. No. 437634) was used as a test reagent, and lipid peroxidation was determined by using the mechanism of formation of stable compounds at 586 nm from the reaction between the above reagent and ester peroxides linked to long-chain unsaturated fatty acids, such as malondialdehyde (MDA) and 4-hydroxyalkenal (4-hydroxy-2(E)-nonenal, 4-HNE).

collagenase = experiment: Effect of inhibiting collagenase expression; format: cell-based; conditions: Human fibroblasts, 10˜4M in serum-free DMEM, non-treated group taken as 100; for activity at 100 µM: Fibroblast
Protocol: The hydroxybenzamide compounds according to Examples 1˜8 were determined for their effects of inhibiting collagenase expression, and the results were compared to the effects obtained from resveratrol and tocopherol.
Human fibroblasts were introduced into a 96-well microtiter plate containing a DMEM (Dulbecco's Modified Eagle's Media) with 2.5% fetal bovine serum (FBS) in a cell count of 5,000 cells per well and cultured to a growth level of 90%. Then, the cultured product was further cultured in a serum-free DMEM medium for 24 hours. Next, the cultured product was treated with the hydroxybenzamide compounds according to Examples 18, resveratrol and tocopherol, dissolved in a serum-free DMEM medium at a concentration of 10˜4M, and then the cell culture was collected. The cell culture was evaluated for the production of collagenase by using a commercially available collagenase measuring system (Amersham Pharmacia, USA). First, the cell culture was introduced into a 96-well plate coated uniformly with primary collagenase antibodies, and then an antigen-antibody reaction was carried out in an incubator for 3 hours. After 3 hours, secondary collagenase antibodies, to which chromophores were bound, were introduced into the 96-well plate, and the reaction was further carried out for 15 minutes. After 15 minutes, a color developer was added thereto to develop a color at room temperature for 15 minutes, and 1M sulfuric acid was further added thereto to quench the reaction (color development). […] The yellow-colored 96-well plate was measured for absorptivity at 405 nm by using an absorption spectrometer, and a degree of collagenase synthesis was calculated according to the following Mathematical Formula 1. At this time, absorptivity of the cell culture in a non-treated group was used as a control.
Collagenase expression (%)=Absorptivity of the group treated with the corresponding sample/Absorptivity of the control×100 [Mathematical Formula 1]
The collagenase expression inhibiting activity was expressed based on the collagenase synthesis activity of the non-treated group, taken as 100.

[3] = HaCaT cells, sample at 10˜4 mol for 24 hours, then t-BHT 4 hours, non-treated group = 100

Compound | Discoloration after 30 days [1] | Discoloration after 60 days [1] | Discoloration After 90 days [1] | activity at 10 µM (procollagen type(I)) [%] | activity at 100 µM [2, 3] [%] | activity at 100 µM (collagenase) [%] | activity at 100 µM ([2]; HaCaT, 24 h) [%] | Collagen biosynthesis activity (%) (procollagen type(I)) | Lipid peroxidation (%) [2, 3] [%] | Collagenase expression (%) (collagenase)
O=C(Nc1ccc(O)cc1)c1cc(O)cc(O)c1 [Ex. 1, 3,5-dihydroxy-N-(4-hydroxyphenyl)benzamide] | 1 | 1 | 1 | 143 | 170 | 67 |  |  |  | 
O=C(Nc1ccccc1O)c1cc(O)cc(O)c1 [Ex. 2, 3,5-dihydroxy-N-(2-hydroxyphenyl)benzamide] | 1 | 1 | 1 | 121 | 180 | 69 |  |  |  | 
O=C(Nc1cccc(O)c1)c1cc(O)cc(O)c1 [Ex. 3, 3,5-dihydroxy-N-(3-hydroxyphenyl)benzamide] | 1 | 1 | 1 | 122 | 182 | 71 |  |  |  | 
COc1ccc(NC(=O)c2cc(O)cc(O)c2)cc1 [Ex. 4, 3,5-dihydroxy-N-(4-methoxyphenyl)benzamide] | 1 | 1 | 1 | 118 | 186 | 74 |  |  |  | 
COc1ccc(NC(=O)c2cc(O)cc(O)c2)cc1OC [Ex. 5, 3,5-dihydroxy-N-(3,4-dimethoxyphenyl)benzamide] | 1 | 1 | 1 | 115 | 176 | 72 |  |  |  | 
COc1cc(NC(=O)c2cc(O)cc(O)c2)cc(OC)c1 [Ex. 6, 3,5-dihydroxy-N-(3,5-dimethoxyphenyl)benzamide] | 1 | 1 | 1 | 116 | 172 | 71 |  |  |  | 
COc1cc(NC(=O)c2cc(O)cc(O)c2)cc(OC)c1OC [Ex. 7, 3,5-dihydroxy-N-(3,4,5-trimethoxyphenyl)benzamide] | 1 | 1 | 1 | 119 | 179 | 70 |  |  |  | 
COc1ccc(NC(=O)c2cc(O)cc(O)c2)cc1O [Ex. 8, 3,5-dihydroxy-N-(3-hydroxy-4-methoxyphenyl)benzamide] | 1 | 1 | 1 | 120 | 181 | 69 |  |  |  | 
Oc1ccc(C=Cc2cc(O)cc(O)c2)cc1 [Resveratrol, reference compound] | 2 | 3 | 4 | 111 | 178 | 81 |  |  |  | 
CC(C)(C)OO [t-BHT, t-butyl hydroperoxide, reference compound] |  |  |  |  |  |  | 320 |  |  | 
Tocopherol [reference compound] |  |  |  |  |  |  |  | 113 | 250 | 95
